According to US20060045953A1 (priority 2004, published 2006):

Molecular target: T1, hT1R1/hT1R3 umami receptor (Homo sapiens, UniProt Q7RTX0+Q7RTX1)
T1 construct: expressed in transfected cells; host or cells: HEK293 derivative stably expressing Gα15, clone I-17, expression induced with mifepristone
T1 sequence (Q7RTX1 21-841): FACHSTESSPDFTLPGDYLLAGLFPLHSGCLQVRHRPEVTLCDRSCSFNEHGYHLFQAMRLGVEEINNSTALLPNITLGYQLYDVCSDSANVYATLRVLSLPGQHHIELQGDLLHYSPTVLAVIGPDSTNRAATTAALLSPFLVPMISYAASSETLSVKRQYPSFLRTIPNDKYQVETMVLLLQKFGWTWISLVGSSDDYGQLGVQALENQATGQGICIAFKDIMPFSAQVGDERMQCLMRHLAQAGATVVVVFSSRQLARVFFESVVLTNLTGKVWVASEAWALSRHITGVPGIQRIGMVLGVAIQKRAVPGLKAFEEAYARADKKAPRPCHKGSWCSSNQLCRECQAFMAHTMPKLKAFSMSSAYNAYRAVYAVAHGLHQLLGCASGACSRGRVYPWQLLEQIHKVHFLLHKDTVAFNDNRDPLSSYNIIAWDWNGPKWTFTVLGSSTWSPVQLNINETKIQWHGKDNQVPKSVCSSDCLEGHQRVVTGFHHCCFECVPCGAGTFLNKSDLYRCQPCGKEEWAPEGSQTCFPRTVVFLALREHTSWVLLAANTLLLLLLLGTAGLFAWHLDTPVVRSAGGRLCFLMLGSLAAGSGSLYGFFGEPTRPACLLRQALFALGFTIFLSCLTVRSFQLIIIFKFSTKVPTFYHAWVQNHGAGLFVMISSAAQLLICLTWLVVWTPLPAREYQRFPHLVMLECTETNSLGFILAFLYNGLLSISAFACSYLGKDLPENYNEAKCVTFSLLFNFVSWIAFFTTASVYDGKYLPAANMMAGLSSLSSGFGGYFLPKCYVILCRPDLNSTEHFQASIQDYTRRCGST
T1 sequence (Q7RTX0 21-852): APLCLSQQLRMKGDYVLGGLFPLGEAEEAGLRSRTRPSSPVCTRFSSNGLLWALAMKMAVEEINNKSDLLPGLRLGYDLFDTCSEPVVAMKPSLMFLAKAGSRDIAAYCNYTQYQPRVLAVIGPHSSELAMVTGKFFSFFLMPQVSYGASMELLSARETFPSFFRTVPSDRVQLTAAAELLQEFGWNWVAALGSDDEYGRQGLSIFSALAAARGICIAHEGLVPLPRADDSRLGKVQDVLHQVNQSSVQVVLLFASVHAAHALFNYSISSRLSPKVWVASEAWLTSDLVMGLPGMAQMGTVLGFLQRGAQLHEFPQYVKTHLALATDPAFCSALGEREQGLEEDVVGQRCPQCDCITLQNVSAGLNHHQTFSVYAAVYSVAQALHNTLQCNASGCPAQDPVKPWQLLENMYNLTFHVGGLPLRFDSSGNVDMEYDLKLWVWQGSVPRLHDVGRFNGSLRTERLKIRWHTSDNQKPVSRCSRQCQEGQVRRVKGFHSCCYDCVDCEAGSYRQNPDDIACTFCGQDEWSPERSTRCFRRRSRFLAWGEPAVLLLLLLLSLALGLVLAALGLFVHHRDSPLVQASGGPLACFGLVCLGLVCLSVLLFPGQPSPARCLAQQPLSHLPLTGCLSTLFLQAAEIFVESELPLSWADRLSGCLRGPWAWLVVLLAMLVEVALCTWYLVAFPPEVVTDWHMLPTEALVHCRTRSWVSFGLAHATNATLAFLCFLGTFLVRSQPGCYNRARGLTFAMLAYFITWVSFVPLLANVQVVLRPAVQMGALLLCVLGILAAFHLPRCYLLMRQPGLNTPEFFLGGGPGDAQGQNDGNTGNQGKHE
Experiment: In vitro hT1R1/hT1R3 umami taste receptor activation assay (FLIPR, dose response)
Type: cell-based
Settings: Table A, Umami Amides; read-out: Umami EC50

EC50 [nM]	SMILES
220	CCOc1ccc(NC(=O)c2c(Cl)ccc(Cl)c2OC)cc1 [Example A1, 3,6-Dichloro-N-(4-ethoxy-phenyl)-2-methoxy-benzamide]
930	COC(=O)c1ccc(NC(=O)c2c(Cl)ccc(Cl)c2OC)cc1 [Example A2, 4-(3,6-Dichloro-2-methoxy-benzoylamino)-benzoic acid methyl ester]
1080	CCOc1ccc(NC(=O)c2cc(Cl)ccc2Cl)cc1 [Example A3, 2,5-dichloro-N-(4-ethoxyphenyl)benzamide]
460	COC[C@@H](CC(C)C)NC(=O)c1cc2cc(OC)ccc2o1 [Example A7, (R)-5-methoxy-N-(1-methoxy-4-methylpentan-2-yl)benzofuran-2-carboxamide]
500	CCC(CC(C)C)NC(=O)c1cc2cc(C)ccc2o1 (centres unmarked) [Example A8, 5-methyl-N-(5-methylhexan-3-yl)benzofuran-2-carboxamide]
710	COC(=O)[C@@H](CC(C)C)NC(=O)c1ccc2occc2c1 [Example A9, (R)-methyl 2-(benzofuran-5-carboxamido)-4-methylpentanoate]
910	CCCC(CCC)NC(=O)c1cc2cc(OC)ccc2o1 [Example A10, N-(heptan-4-yl)-5-methoxybenzofuran-2-carboxamide]
1050	CCC(COC)NC(=O)c1cc2cc(Cl)ccc2o1 (centres unmarked) [Example A11, 5-chloro-N-(1-methoxybutan-2-yl)benzofuran-2-carboxamide]
1130	CCCC(NC(=O)c1cc2cc(OC)ccc2o1)C(C)C (centres unmarked) [Example A12, 5-methoxy-N-(2-methylhexan-3-yl)benzofuran-2-carboxamide]
1140	CCC(CC)NC(=O)c1cc2cc(OC)ccc2o1 [Example A13, 5-methoxy-N-(pentan-3-yl)benzofuran-2-carboxamide]
1140	COC(=O)C(CCSC)NC(=O)c1cc2cc(OC)ccc2o1 (centres unmarked) [Example A14, methyl 2-(5-methoxybenzofuran-2-carboxamido)-4-(methylthio)butanoate]
1140	CCOC(=O)[C@@H]1CCCC[C@H]1NC(=O)c1cc2cc(OC)ccc2o1 [Example A15, (1R,2R)-ethyl 2-(5-methoxybenzofuran-2-carboxamido)cyclohexanecarboxylate]
1180	CCC(NC(=O)c1cc2cc(OC)ccc2o1)C(C)C (centres unmarked) [Example A16, 5-methoxy-N-(2-methylpentan-3-yl)benzofuran-2-carboxamide]
1200	COc1ccc2oc(C(=O)NC(C(C)C)C(C)C)cc2c1 [Example A17, N-(2,4-dimethylpentan-3-yl)-5-methoxybenzofuran-2-carboxamide]
1270	CCCC(CC(C)C)NC(=O)c1cc2cc(OC)ccc2o1 (centres unmarked) [Example A18, 5-methoxy-N-(2-methylheptan-4-yl)benzofuran-2-carboxamide]
1300	CCCC(COC)NC(=O)c1cc2cc(OC)ccc2o1 (centres unmarked) [Example A19, 5-methoxy-N-(1-methoxypentan-2-yl)benzofuran-2-carboxamide]
1320	CCCC(CC(C)C)NC(=O)c1cc2cc(C)ccc2o1 (centres unmarked) [Example A20, 5-methyl-N-(2-methylheptan-4-yl)benzofuran-2-carboxamide]
1520	CCC(CC)NC(=O)c1cc2ccccc2o1 [Example A21, N-(pentan-3-yl)benzofuran-2-carboxamide]
1580	CCCC(CCC)NC(=O)c1ccc2ncsc2c1 [Example A22, Benzothiazole-6-carboxylic acid (1-propyl-butyl)-amide]
380	CCCC(CC(C)C)NC(=O)c1ccc2oc(C)nc2c1 (centres unmarked) [Example A23, 2-methyl-N-(2-methylheptan-4-yl)benzo[d]oxazole-5-carboxamide]
1120	CCCC(CC(C)C)NC(=O)c1ccc2nc(C)oc2c1 (centres unmarked) [Example A24, 2-methyl-N-(2-methylheptan-4-yl)benzo[d]oxazole-6-carboxamide]

EC50 [nM]	SMILES
1600	CCCC(NC(=O)c1ccc2nc(C)oc2c1)C(C)C (centres unmarked) [Example A26, 2-methyl-N-(2-methylhexan-3-yl)benzo[d]oxazole-6-carboxamide]
1610	CCCC(CCC)NC(=O)c1ccc2nc(CC)oc2c1 [Example A27, 2-ethyl-N-(heptan-4-yl)benzo[d]oxazole-6-carboxamide]
1690	COC(=O)[C@@H](CC(C)C)NC(=O)c1ccc2oc(C)nc2c1 [Example A28, (R)-4-Methyl-2-[(2-methyl-benzooxazole-5-carbonyl)-amino]-pentanoic acid methyl ester]
1910	CCCC(CCC)NC(=O)c1ccc2ncoc2c1 [Example A29, N-(heptan-4-yl)benzo[d]oxazole-6-carboxamide]
490	CCCC(CCC)NC(=O)c1ccc(Br)o1 [Example A30, 5-bromo-N-(heptan-4-yl)furan-2-carboxamide]
620	CCCC(CCC)NC(=O)c1cc(C)c(C)o1 [Example A31, N-(heptan-4-yl)-4,5-dimethylfuran-2-carboxamide]
1150	Cc1ccoc1C(=O)NC1CCCC(C)C1C (centres unmarked) [Example A32, N-(2,3-dimethylcyclohexyl)-3-methylfuran-2-carboxamide]
1330	Cc1cc(C(=O)NC2CCCCC2C)oc1C (centres unmarked) [Example A33, 4,5-dimethyl-N-(2-methylcyclohexyl)furan-2-carboxamide]
530	COC(=O)[C@@H](CC(C)C)NC(=O)c1cc2ccccc2[nH]1 [Example A34, (R)-methyl 2-(1H-indole-2-carboxamido)-4-methylpentanoate]
820	CCCC(CCC)NC(=O)c1ccc2cc[nH]c2c1 [Example A35, N-(heptan-4-yl)-1H-indole-6-carboxamide]
1010	COC(=O)[C@@H](CC(C)C)NC(=O)c1ccc2[nH]ccc2c1 [Example A36, (R)-methyl 2-(1H-indole-5-carboxamido)-4-methylpentanoate]
1500	COC(=O)[C@@H](CC(C)C)NC(=O)c1ccc2ncccc2c1 [Example A37, (R)-methyl 4-methyl-2-(quinoline-6-carboxamido)pentanoate]
1220	CCCC(CCC)NC(=O)c1ccc(C)s1 [Example A38, 5-Methyl-thiophene-2-carboxylic acid (1-propyl-butyl)-amide]
1310	Cc1ccc(C(=O)NC2CCCc3ccccc32)s1 (centres unmarked) [Example A39, 5-Methyl-thiophene-2-carboxylic acid (1,2,3,4-tetrahydro-naphthalen-1-yl) amide]
370	COC(=O)[C@@H](CC(C)C)NC(=O)c1ccc2ccccc2c1 [Example A40, (R)-methyl 2-(2-naphthamido)-4-methylpentanoate]
700	CCCCC(CCCC)NC(=O)c1ccc2c(c1)OCO2 [Example A41, N-(nonan-5-yl)benzo[d][1,3]dioxole-5-carboxamide]
350	CC[C@@H](C)[C@@H](NC(=O)c1ccc2c(c1)OCO2)C(=O)OC [Example A42, (2R,3R)-methyl 2-(benzo[d][1,3]dioxole-5-carboxamido)-3-methylpentanoate]
490	CCCCC(NC(=O)c1ccc2c(c1)OCO2)C(=O)OC (centres unmarked) [Example A43, 2-[(Benzo[1,3]dioxole-5-carbonyl)-amino]-hexanoic acid methyl ester]
1320	COC(=O)[C@@H](CC(C)C)NC(=O)c1ccc2c(c1)CCO2 [Example A46, (R)-methyl 2-(2,3-dihydrobenzofuran-5-carboxamido)-4-methylpentanoate]
1330	O=C(N[C@H]1CCCc2ccccc21)c1ccc2c(c1)OCO2 [Example A47, (S)-N-(1,2,3,4-tetrahydronaphthalen-1-yl)benzo[d][1,3]dioxole-5-carboxamide]
